The values that follow come from ChEMBL document CHEMBL5370666, “Covalent Peptide LSD1 Inhibitor Specifically Recognizes Cys360 in the Enzyme-Active Region” (J Med Chem, 2023).

Active and inactive are the calls of the source. No cut-off for these calls is given here. *1 amine or outer side, *2 acyl side, *3 side chain or, on linkers, in order; H or OH if unused. Where a SMILES comes first, the peptide text is derived from it. Bridges are numbered along the chain shown (N, C = ends). [ ]: non-standard residue; d: D form. The star is where a group is joined. Met(S-mXyl) = C[S+](CC[C@H](N[*:1])C(=O)[*:2])Cc1cccc(C[*:3])c1; Biotin = O=C1N[C@H]2[C@H](CS[C@H]2CCCCC(=O)*)N1

Data set [1] concerns the target T1, Amine oxidase [flavin-containing] A (Homo sapiens, UniProt P21397).
T1 sequence (P21397 whole entry): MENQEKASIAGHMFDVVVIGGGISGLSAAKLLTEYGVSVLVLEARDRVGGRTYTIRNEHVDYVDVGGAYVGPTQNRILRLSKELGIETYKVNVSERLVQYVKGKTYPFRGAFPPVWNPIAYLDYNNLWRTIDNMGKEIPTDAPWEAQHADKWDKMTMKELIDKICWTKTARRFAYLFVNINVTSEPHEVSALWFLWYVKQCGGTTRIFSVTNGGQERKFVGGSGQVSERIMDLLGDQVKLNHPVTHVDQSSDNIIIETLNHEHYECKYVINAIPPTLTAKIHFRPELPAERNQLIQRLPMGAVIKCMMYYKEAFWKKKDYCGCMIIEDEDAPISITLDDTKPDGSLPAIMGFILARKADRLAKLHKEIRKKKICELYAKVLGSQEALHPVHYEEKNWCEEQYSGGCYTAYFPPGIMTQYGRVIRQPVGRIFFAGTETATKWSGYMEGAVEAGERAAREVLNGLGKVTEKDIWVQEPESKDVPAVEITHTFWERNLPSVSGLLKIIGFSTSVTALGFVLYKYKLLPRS
Nature of the data set: Inhibition of MAO-A (unknown origin) incubated for 10 mins by fluorescence based assay.

Data set [2] relates to A549. Put plainly: Induction of cell cycle arrest in human A549 cells assessed as cell accumulation at S phase at 50 uM incubated for 24 hrs by RNase/PI staining based flow cytometry (reference value: 39.60 %). It is filed as functional. (Flow cytometry measures light scatter and fluorescence of single cells or particles in a stream.)
For data set [3], the system named is T47D. Nature of the data set: Induction of apoptosis in human T47D cells assessed as viable cells incubated for 24 hrs by Annexin V-FITC/PI staining based flow cytometry (reference value: 98.6 %). It is filed as functional.
The test system of data set [4] is A549. Put plainly: Induction of cell cycle arrest in human A549 cells assessed as cell accumulation at G1 phase at 50 uM incubated for 24 hrs by RNase/PI staining based flow cytometry (reference value: 49.19 %). The format is functional.
Data set [5] concerns T47D. Put plainly: Induction of apoptosis in human T47D cells assessed as necrotic cells incubated for 24 hrs by Annexin V-FITC/PI staining based flow cytometry (reference value: 0.243 %). It is filed as functional.
Data set [6] deals with T2, Phospholipid hydroperoxide glutathione peroxidase GPX4 (Homo sapiens) (UniProt P36969).
T2 sequence (whole entry): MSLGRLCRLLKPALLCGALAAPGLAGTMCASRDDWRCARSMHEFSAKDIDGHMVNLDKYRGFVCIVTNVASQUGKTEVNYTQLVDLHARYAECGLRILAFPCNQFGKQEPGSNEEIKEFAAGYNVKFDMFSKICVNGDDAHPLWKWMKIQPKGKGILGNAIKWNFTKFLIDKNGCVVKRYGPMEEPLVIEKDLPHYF
Nature of the data set: Binding affinity to GPX4 (unknown origin) at 50 uM incubated for 12 hrs by SDS-PAGE analysis.

Data set [7] has as its system A549. Put plainly: Cytotoxicity against human A549 cells assessed as cell viability at 100 uM incubated for 24 hrs by MTT assay relative to control. To be noted: A549, 24 h, read-out: Activity.
For data set [8], the target named is Apoptosis regulator Bcl-2 (Homo sapiens) (UniProt P10415). Put plainly: Binding affinity to BCL2 (unknown origin) at 50 uM incubated for 12 hrs by SDS-PAGE analysis.
The subject of data set [9] is A549. Nature of the data set: In vivo inhibition of LSD1 in human A549 cells xenografted in athymic nude BALB/c ASlac-nu mouse at 20 mg/kg, sc everyday for 28 days by IHC analysis. It is filed as functional, organism-based. Particulars: time 28.0 day. (In general: In xenograft studies the graft and the host belong to different species.)
Data set [10] relates to T47D. Nature of the data set: Induction of apoptosis in human T47D cells assessed as early apoptotic cells incubated for 24 hrs by Annexin V-FITC/PI staining based flow cytometry (reference value: 0.274 %). It is filed as functional.
For data set [11], the system named is A549. Particulars: Homo sapiens, dose 20.0 mg/kg, route sc, time 28.0 day.
Data set [12] can be described thus: Toxicity in athymic nude BALB/c ASlac-nu mouse xenografted with human A549 cells assessed as body weight loss at 20 mg/kg, sc everyday for 28 days. The format is organism-based. To be noted: in vivo, 672 h, time 28 day.
In data set [13] the test system is T47D. Nature of the data set: Cytotoxicity against human T47D cells assessed as cell viability at 100 uM incubated for 24 hrs by MTT assay relative to control. To be noted: read-out: Activity. (Tetrazolium assays rely on reduction of a dye to a coloured formazan, in cell work by metabolically active cells.)
Data set [14] concerns T47D. Put plainly: Induction of apoptosis in human T47D cells assessed as late apoptotic cells incubated for 24 hrs by Annexin V-FITC/PI staining based flow cytometry (reference value: 0.898 %). The format is functional.
Data set [15] deals with A549. Put plainly: Induction of cell cycle arrest in human A549 cells assessed as cell accumulation at G2 phase at 50 uM incubated for 24 hrs by RNase/PI staining based flow cytometry (reference value: 9.81 %). It is filed as functional.
In data set [16] the target is Lysine-specific histone demethylase 1A (Homo sapiens) (UniProt O60341). Nature of the data set: Covalent binding affinity to full-length human LSD1 transfected in HEK293T cell lysate at 40 uM incubated overnight by biotin-pull down assay. The format is subcellular.

Chain of Apoptosis regulator Bcl-2 (Homo sapiens) (P10415 whole entry): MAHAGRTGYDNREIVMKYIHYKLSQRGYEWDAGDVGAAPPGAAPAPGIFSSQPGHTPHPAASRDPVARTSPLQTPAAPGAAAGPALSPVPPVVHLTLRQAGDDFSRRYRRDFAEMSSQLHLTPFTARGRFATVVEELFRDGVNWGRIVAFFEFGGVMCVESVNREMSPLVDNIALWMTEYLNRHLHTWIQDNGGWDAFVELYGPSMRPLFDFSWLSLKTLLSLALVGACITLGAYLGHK

Take `C#CCN(C)CCCOc1ccc(Cl)cc1Cl` [CLORGILINE]: the “inhibition (INH)” value in data set [1] is “Active”.

Consider `CC(=O)N1CCC[C@H]1C(=O)N[C@@H](CCCNC(=N)N)C(=O)N[C@H]1CSCc2cccc(c2)C[S+](C)CC[C@@H](C(=O)N[C@@H](CCCCN)C(=O)N2CCC[C@H]2C(=O)N[C@@H](CCCNC(=N)N)C(=O)N[C@@H](CCCNC(=N)N)C(=O)N[C@@H](CCCNC(=N)N)C(=O)N[C@@H](CCCNC(=N)N)C(=O)N[C@@H](Cc2c[nH]c3ccccc23)C(N)=O)NC(=O)[C@H](C(C)C)NC(=O)[C@H](CC(C)C)NC(=O)[C@H](Cc2ccccc2)NC1=O` (stereo not given in full) (Ac-PRCFLV[Met(S-mXyl)]KPRRRRW-NH2; thioether 3-7), for which the Activity in the data set on A549 [2] is listed as 27.23%; in the data set on T47D [3] it was 2.14%; with A549 [4], 60.61%; with T47D [5], 51.2%; with T47D [10], 0%; in [12] it was “Non-Toxic”. Moreover, the results for the Activity with T47D [14] and in the data set on A549 [15] were 46.7% and 12%, respectively. In addition, the outcome in [6] and in data set [8] was inactive. Further, the viability at 100 µM was around 19.9% in the data set with A549 [7] and around 7.4% in the data set on T47D [13]. In addition, the inhibition result in the data set on A549 [9] and in the data set on A549 [11] was “Active” throughout. In data set [1], the “inhibition (INH)” value is reported as “Not Active”.

On to `O=C(O)c1ccc(CN2CCC(CN[C@@H]3C[C@H]3c3ccccc3)CC2)cc1` [GSK2879552], for which the Activity with A549 [2] is given as 36.7%; in the data set on T47D [3], 95.9%; in the data set with A549 [4], 53.15%; in the data set on T47D [5] it was 0.743%; with T47D [10], 1.62%; in data set [12] it was “Non-Toxic”. Further, the Activity in the data set on T47D [14] was 1.74%; in the data set on A549 [15], 9.92%. In addition, the inhibition entry in the data set with A549 [9] was “Active”.

As to `CC(=O)N1CCC[C@H]1C(=O)N[C@@H](CCCNC(=N)N)C(=O)N[C@H]1CSCc2cccc(c2)C[S+](C)CC[C@@H](C(=O)N[C@@H](CCCCNC(=O)CCCC[C@@H]2SC[C@@H]3NC(=O)N[C@@H]32)C(=O)N2CCC[C@H]2C(=O)N[C@@H](Cc2c[nH]c3ccccc23)C(N)=O)NC(=O)[C@H](C(C)C)NC(=O)[C@H](CC(C)C)NC(=O)[C@H](Cc2ccccc2)NC1=O` (stereo not given in full) (Ac-PRCFLV[Met(S-mXyl)]K(Biotin)PW-NH2; thioether 3-7), the result in [16] was Active.

As for Ac-PRSFLVRKPRRRRW-NH2, the Activity in the data set with A549 [2] is on record as 34.2%; with T47D [3], 96.3%; in the data set with A549 [4] it was 57.34%; with T47D [5] it was 0.088%; with T47D [10] it was 1.49%; in data set [12] it was “Non-Toxic”. For the same molecule, the Activity with T47D [14] turned out to be 2.19%; in the data set on A549 [15], 7.96%. Besides, the inhibition entry with A549 [9] was “Active”.
